Laboratory results reported in US4515811A, “Process for the resolution of d,1 2-(6-methoxy-2-naphthyl)propionic acid” (Syntex Corporation, priority 1980, dated 1985).
Structures can show the parent of a compound that is named as a salt.

tested on: carrageenin-induced paw inflammation in the rat; assay: not given; details: Example 32; female rats, oral gavage at hour 0, carrageenin at hour 1, sacrificed hour 4; relative to phenylbutazone = 1, molar basis
Description: The anti-inflammatory activity of each of the compounds listed below is compared with the activity of phenylbutazone by means of the carrageenin-induced rat paw inflammation test described below.
TEST FOR ANTI-INFLAMMATORY ACTIVITY UTILIZING CARRAGEENIN-INDUCED PAW INFLAMMATION IN THE RAT
Materials and Methods--Female rats weighing 80-90 grams are used. The test materials are given at hour 0 orally by gavage in 1 ml. aqueous vehicle. At hour 1, 0.05 ml. of a 1% solution (in 0.9% NaCl) of carrageenin is injected into the right hind paw. This injection causes an inflammation of the paw. The rats are sacrificed at hour 4, at which time both hind paws are removed and weighed separately.
End point: % increase in paw size calculated as follows: [formula]

SMILES	Oral Anti-Inflammatory Activity (on a molar equivalent basis) (Phenylbutazone = 1)
COc1ccc2cc([C@H](C)C(=O)O)ccc2c1 [N-ethyl-D-glucamine salt of d 2-(6-methoxy-2-naphthyl)propio] [N-ethyl-D-glucamine salt of d 2-(6-methoxy-2-naphthyl)propionic acid]	17
COc1ccc2cc([C@H](C)C(=O)O)ccc2c1 [N-cyclohexyl-D-glucamine salt of d 2-(6-methoxy-2-naphthyl)p] [N-cyclohexyl-D-glucamine salt of d 2-(6-methoxy-2-naphthyl)propionic acid]	11
COc1ccc2cc([C@H](C)C(=O)O)ccc2c1 [N-n-octyl-D-glucamine salt of d 2-(6-methoxy-2-naphthyl)prop] [N-n-octyl-D-glucamine salt of d 2-(6-methoxy-2-naphthyl)propionic acid]	17
COc1ccc2cc([C@H](C)C(=O)O)ccc2c1 [N-n-propyl-D-glucamine salt of d 2-(6-methoxy-2-naphthyl)pro] [N-n-propyl-D-glucamine salt of d 2-(6-methoxy-2-naphthyl)propionic acid]	20
COc1ccc2cc([C@H](C)C(=O)O)ccc2c1 [N-n-butyl-D-glucamine salt of d 2-(6-methoxy-2-naphthyl)prop] [N-n-butyl-D-glucamine salt of d 2-(6-methoxy-2-naphthyl)propionic acid]	5
COc1ccc2cc([C@H](C)C(=O)O)ccc2c1 [N-n-octadecyl-D-glucamine salt of d 2-(6-methoxy-2-naphthyl)] [N-n-octadecyl-D-glucamine salt of d 2-(6-methoxy-2-naphthyl)propionic acid]	7

same assay, conditions: Example 33; test of Example 32 repeated; oral, female rats; relative to phenylbutazone = 1, molar basis

SMILES	Oral Anti-Inflammatory Activity (on a molar equivalent basis) (Phenylbutazone = 1)
COc1ccc2cc([C@H](C)C(=O)O)ccc2c1 [N-cyclooctyl-D-glucamine salt of d 2-(6-methoxy-2-naphthyl)p] [N-cyclooctyl-D-glucamine salt of d 2-(6-methoxy-2-naphthyl)propionic acid]	20
COc1ccc2cc([C@H](C)C(=O)O)ccc2c1 [N-cyclopropyl-D-glucamine salt of d 2-(6-methoxy-2-naphthyl)] [N-cyclopropyl-D-glucamine salt of d 2-(6-methoxy-2-naphthyl)propionic acid]	9

tested on: not listed separately; assay: Solubility of resolving agent in water; assay type: physicochemical; details: not given

solubility in water (in words)	SMILES
substantially insoluble in water	CCCCCCCCNC[C@H](O)[C@@H](O)[C@H](O)[C@H](O)CO [N-n-octyl-D-glucamine]
